Each block holds one molecule with its values, some of them ahead of it.
What was measured:
[1] = Stability test at 40° C., HPLC purity; type: physicochemical
Procedure: As used herein, “HPLC purity” refers to the percentage of the peak area of compound I obtained by area normalization method in the sum of all the peak area in HPLC detection applied to compound I, according to the obtained chromatogram.
(§1) Column: 4.6×250 mm 5 μm C18 column; flow rate: 2 ml/min; injection volume: 10 μl; column temperature: 35° C.; detection wavelength: 217 nm; mobile phase: acetonitrile/water/trifluoroacetic acid; Elution condition: water (60%): acetonitrile (40%): trifluoroacetic acid (0.1%); detection limit: 10 ng.
The purity mentioned in the following Examples is HPLC purity.
(§2) Compound I from example 2, example 3 and example 4 were obtained, and subjected to stability test at 40° C., respectively. […] Therefore, crystalline form B of compound I prepared by the method of the present invention has unique stability.

[2] = cited from earlier work
[3] = Storage stability of crystalline form B by HPLC (0° C., 20° C., 40° C.); type: physicochemical
Procedure: as §1, §2

- Purity at 0 day (40° C.) ([1]; stability test at 40° C., 0 day (start)): 99.90%
- Purity at 10 day (40° C.) ([1]; stored at 40° C., 10 day): 99.91%
- Purity at 30 day (40° C.) ([1]; stored at 40° C., 30 day): 99.89%
- Purity at 90 day (40° C.) ([1]; stored at 40° C., 90 day): 99.88%
Compound: CCCCC[C@H](O)CC[C@@H]1[C@H]2Cc3cccc(OCC(=O)O)c3C[C@H]2C[C@H]1O [Example 4]

Compound: CCCCC[C@H](O)CC[C@@H]1[C@H]2Cc3cccc(OCC(=O)O)c3C[C@H]2C[C@H]1O [Treprostinil]
- Stability under physiological conditions [2]: stable

- Degradation on storage (HPLC) ([3]; stored at 0° C. for 12 months): did not degrade at all
- Degradation on storage (HPLC) ([3]; stored at 20° C. for 6 months): did not degrade at all
- Degradation on storage (HPLC) ([3]; stored at 40° C. for 2 months): did not degrade at all
Compound: CCCCC[C@H](O)CC[C@@H]1[C@H]2Cc3cccc(OCC(=O)O)c3C[C@H]2C[C@H]1O [crystalline form B of compound I]
